Cytotoxicity data for one compound are collected here from patent US11173116B2, “Drug delivery system kit comprising an enzyme” (INDUSTRY-ACADEMIC COOPERATION FOUNDATION, YONSEI UNIVERSITY, priority 2018, dated 2021).

Counter-ions that a name gives are not always drawn.

In the data set the test system is HeLa cells. Description: Cytotoxicity test, MTT assay. The data set is classed as cell-based. The settings on record: amount of 1 μg. On the procedure:
HeLa cells were cultured for 2 to 3 days in a 100 mm culture dish (SPL, Pocheon-si, Korea) in a 5% CO2 incubator. When 95% of the cells were grown, the cells were detached by trypsin-EDTA treatment. Thereafter, for a toxicity test, the cells were inoculated at a density of 7,000 cells/well in a 24-well plate. For cell attachment, the cells were cultured for one day, and for cytotoxicity and anticancer assays, the enzyme, DOX, and DOX-free hollow drug delivery system in the culture medium were used to treat the cells separately. After the materials were cultured for one day, the cytotoxicity was measured using a 3-(4,5-dimethylthiazol-2-yl)-2,5-diphenyltetrazolium bromide (MTT) assay. An MTT solution (5 mg/mL) in PBS was used to treat the cells for 2 hours in an incubator, the cells were dissolved in DMSO, and the absorbance at a wavelength of 540 nm was measured using a plate reader (SpectraMax 340 PC; Molecular Devices, Sunnyvale, Calif., USA).
The anticancer effect of the DOX-conjugated drug delivery system was investigated through a cytotoxicity test. In this case, 1 μg of the DOX-conjugated hollow drug delivery systems of Preparation Examples 4 and 5 were used. A cell culture medium was composed of 90% Dulbecco's Modified Eagle Medium, 10% fetal bovine serum, and 1% penicillin-streptomycin-glutamine. […]

Regarding `COc1cccc2c1C(=O)c1c(O)c3c(c(O)c1C2=O)C[C@@](O)(C(=O)CO)C[C@@H]3O[C@H]1C[C@H](N)[C@H](O)[C@H](C)O1` [DOX, doxorubicin hydrochloride], the cytotoxicity result is reported as “very high toxicity”.
